Tests used:
[1] = system: CD19.28z CAR T cells; assay: Flow cytometry of T cell memory markers CCR7 and CD45RA in 8-plex CAR T cells; format: cell-based, human; details: 5 μM TWS119, 0.15 μM JQ1, day 8
Experimental: 8-plex CAR T SSN-seg ex vivo (infusion product). Twenty-four hours after activation, human primary T cells were transduced with lentiviral vectors (see FIG. 16B). Transduced T cells were cultured in the presence of 5 μM TWS119, 0.15 μM JQ1, the combination of TWS119 and JQ1 (Combo), or DMSO (Mock) controls. CAR T cells in four treatment groups were expanded in culture media supplemented with IL2 or IL7 plus IL15 (denoted as IL7×15) cytokines. Culture media containing small molecule inhibitors and cytokines were replenished every other day. CAR T cells were maintained at a concentration of 0.5 to 1×10^6 cells per ml. On day 8, expression of T cell memory makers (CCR7 and CD45RA) was evaluated in all treatment groups using flow cytometry. Then, CAR T cells in all groups were counted and pooled at equal ratios. To enrich CAR^+ population a cell surface reporter NGFR^+ was utilized to FACS purify CAR T cells before scRNA-seq analysis. Aliquots of the pooled samples were also injected into tumor mice. Remaining CAR T cells were cryopreserved in CryoStor CS10 media (Stem Cell Technologies).

[2] = system: CD19.28z CAR T cells; assay: 8-plex CAR T SSN-seq ex vivo (infusion product); format: cell-based, human; details: 5 μM TWS119, 0.15 μM JQ1; CCR7, SELL, TCF7
Experimental: Pooled/sorted cells were processed for single-cell RNA sequencing at using Chromium Next GEM Single Cell 3′ Reagent Kit V3.1 (with feature barcoding technology for CRISPR screening), following the manufacturer's protocol. For enrichSSN amplification, a primer specific to the 5′ shield sequence was used (see FIG. 16A) and PCR was performed following 10× Genomics protocol for “Feature PCR” with 15 or 19 amplification cycles. Pooled libraries (the 3′ gene expression library and the sgRNA/SSN library, at a 4:1 ratio) were sequenced with a NovaSeq6000 SP-100 flow cell (Illumina) for each scRNA-seq experiment.
scRNA-seq data were preprocessed. In brief, gene expressing reads were aligned to the GRCh38 genome (human) and/or mm 10 genome (mouse) using the 10× Genomics Cell Ranger (version 6.0.2, 6.1.1 and 6.1.2), with the cellranger count pipeline. sgRNA/SSN counts were retrieved by cellranger count using the pattern containing unique group barcodes and constant sequences derived from the sgRNA/SSN scaffold. […] To ensure a fair quantitative comparison, sgRNA/SSN UMI counts shown across different experiments were restricted to the raw output of cellranger count. Filtered feature-barcode matrices were further analyzed in R using Seurat (version 4.0.3). In general, genes detected in less than three cells and cells expressing <200 or >7,000 RNA features (genes) were filtered out. […]

SMILES: Cc1sc2c(c1C)C(c1ccc(Cl)cc1)=N[C@@H](CC(=O)OC(C)(C)C)c1nnc(C)n1-2 [JQ1]
- naïve and central memory markers (CCR7, CD45RA) [1]: enrichment of naïve and central memory markers
- enriched genes in transcriptome analysis [2]: enriched in memory-related genes

SMILES: Nc1cccc(-c2cc3c(Oc4cccc(O)c4)ncnc3[nH]2)c1 [TWS119]
- naïve and central memory markers (CCR7, CD45RA) [1]: enrichment of naïve and central memory markers
- enriched genes in transcriptome analysis [2]: enriched in memory-related genes
